{
  "source": "ChEMBL document CHEMBL5370642",
  "about": "“Synthesis and Bioevaluation of 3-(Arylmethylene)indole Derivatives: Discovery of a Novel ALK Modulator with Antiglioblastoma Activities” (J Med Chem, 2023)",
  "key": {"[1]": {"molecular_target": "ALK tyrosine kinase receptor (Mus musculus) (UniProt P97793)", "sequence (P97793 whole entry)": "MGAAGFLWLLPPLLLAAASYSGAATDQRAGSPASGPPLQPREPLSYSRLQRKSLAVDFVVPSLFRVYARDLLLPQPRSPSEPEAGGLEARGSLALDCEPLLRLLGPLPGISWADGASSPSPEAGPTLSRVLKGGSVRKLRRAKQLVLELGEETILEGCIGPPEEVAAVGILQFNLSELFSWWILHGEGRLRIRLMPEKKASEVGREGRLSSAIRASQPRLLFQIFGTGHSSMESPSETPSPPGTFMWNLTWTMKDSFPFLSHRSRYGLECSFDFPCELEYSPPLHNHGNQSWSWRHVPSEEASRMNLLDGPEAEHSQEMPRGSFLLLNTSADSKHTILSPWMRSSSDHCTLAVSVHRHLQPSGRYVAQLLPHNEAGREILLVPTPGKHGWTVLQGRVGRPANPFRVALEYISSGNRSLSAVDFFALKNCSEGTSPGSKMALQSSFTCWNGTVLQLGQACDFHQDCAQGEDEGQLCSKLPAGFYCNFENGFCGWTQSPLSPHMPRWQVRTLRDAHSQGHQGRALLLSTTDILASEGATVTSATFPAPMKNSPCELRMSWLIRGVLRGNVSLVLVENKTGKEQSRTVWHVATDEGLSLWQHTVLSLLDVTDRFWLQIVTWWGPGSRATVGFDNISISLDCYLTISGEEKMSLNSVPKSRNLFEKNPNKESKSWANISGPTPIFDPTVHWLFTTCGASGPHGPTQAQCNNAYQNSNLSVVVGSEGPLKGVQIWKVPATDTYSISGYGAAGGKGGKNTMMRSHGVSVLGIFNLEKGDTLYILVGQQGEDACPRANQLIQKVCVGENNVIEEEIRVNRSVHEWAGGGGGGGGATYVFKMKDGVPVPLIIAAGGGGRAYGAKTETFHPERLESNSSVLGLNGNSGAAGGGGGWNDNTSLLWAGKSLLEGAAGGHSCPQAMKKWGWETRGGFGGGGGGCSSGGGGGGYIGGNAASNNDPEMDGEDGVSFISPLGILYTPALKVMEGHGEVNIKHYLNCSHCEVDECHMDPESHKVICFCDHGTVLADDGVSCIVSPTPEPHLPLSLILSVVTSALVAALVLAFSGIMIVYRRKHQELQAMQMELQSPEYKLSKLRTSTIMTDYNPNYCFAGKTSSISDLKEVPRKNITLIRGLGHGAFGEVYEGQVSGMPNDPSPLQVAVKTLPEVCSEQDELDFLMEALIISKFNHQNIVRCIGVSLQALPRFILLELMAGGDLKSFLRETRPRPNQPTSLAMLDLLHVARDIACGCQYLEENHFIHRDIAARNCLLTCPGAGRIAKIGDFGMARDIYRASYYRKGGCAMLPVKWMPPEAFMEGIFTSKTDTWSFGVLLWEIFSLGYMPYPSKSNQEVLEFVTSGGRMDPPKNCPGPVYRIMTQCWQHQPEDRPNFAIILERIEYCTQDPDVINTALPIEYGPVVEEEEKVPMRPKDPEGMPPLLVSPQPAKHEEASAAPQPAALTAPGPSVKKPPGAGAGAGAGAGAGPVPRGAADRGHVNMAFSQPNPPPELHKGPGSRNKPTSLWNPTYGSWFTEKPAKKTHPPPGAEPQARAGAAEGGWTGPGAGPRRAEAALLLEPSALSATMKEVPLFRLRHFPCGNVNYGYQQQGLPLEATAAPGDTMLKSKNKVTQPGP", "assay": "Inhibition of ALK phosphorylation in mouse GL261 cells at 0.5 to 2 uM incubated for 24 hrs by Western blot analysis", "format": "cell-based", "details": "dose 0.5-2 µM"}, "[2]": {"assay": "Half life in C57BL6/J mouse at 5 mg/kg, ip measured upto 24 hrs by LC-MS/MS analysis", "format": "ADME, organism-based", "details": "in vivo"}, "[3]": {"molecular_target": "ALK tyrosine kinase receptor (Mus musculus) (UniProt P97793)", "assay": "Binding affinity to ALK in mouse GL261 cell lysate assessed as increase in thermal stability of the protein measured after 4 hrs by […] based CETSA analysis", "format": "subcellular"}, "[4]": {"assay": "MRT (0 to 8hrs) in C57BL6/J mouse at 5 mg/kg, ip measured upto 24 hrs by LC-MS/MS analysis", "format": "ADME, organism-based", "details": "in vivo"}, "GL261 [5]": {"test_system": "GL261", "assay": "Induction of autophagy in mouse GL261 cells transfected with mRFP-GFPLC3 adenovirus assessed as yellow fluorescence pretreated with CQ for 30 mins followed by treated at 2 uM measured after 48 hrs by confocal microscopy", "format": "functional, cell-based"}, "GL261 [6]": {"test_system": "GL261", "assay": "Induction of cell cycle arrest in mouse GL261 cells assessed as accumulation at S phase at 1 uM incubated for 72 hrs by flow cytometry (reference value: 13.9%)", "format": "functional, cell-based"}, "[7]": {"assay": "AUC (0 to infinity) in C57BL6/J mouse at 5 mg/kg, iv measured upto 24 hrs by LC-MS/MS analysis", "format": "ADME, organism-based", "parameters": "dose 5 mg/kg, time < 24 hrs, route iv", "details": "in vivo"}, "GL261 [8]": {"test_system": "GL261", "assay": "Induction of mitochondrial membrane potential loss in mouse GL261 cells at 0.5 to 2 uM incubated for 24 hrs by JC-1 staining based flow cytometry assay", "format": "functional, cell-based", "details": "dose 0.5-2 µM"}, "[9]": {"assay": "Tmax in C57BL6/J mouse at 5 mg/kg, ip measured upto 24 hrs by LC-MS/MS analysis", "format": "ADME, organism-based", "details": "in vivo"}, "[10]": {"molecular_target": "T1, ALK tyrosine kinase receptor (Homo sapiens, UniProt Q9UM73)", "T1 sequence (Q9UM73 19-1620 limits assumed)": "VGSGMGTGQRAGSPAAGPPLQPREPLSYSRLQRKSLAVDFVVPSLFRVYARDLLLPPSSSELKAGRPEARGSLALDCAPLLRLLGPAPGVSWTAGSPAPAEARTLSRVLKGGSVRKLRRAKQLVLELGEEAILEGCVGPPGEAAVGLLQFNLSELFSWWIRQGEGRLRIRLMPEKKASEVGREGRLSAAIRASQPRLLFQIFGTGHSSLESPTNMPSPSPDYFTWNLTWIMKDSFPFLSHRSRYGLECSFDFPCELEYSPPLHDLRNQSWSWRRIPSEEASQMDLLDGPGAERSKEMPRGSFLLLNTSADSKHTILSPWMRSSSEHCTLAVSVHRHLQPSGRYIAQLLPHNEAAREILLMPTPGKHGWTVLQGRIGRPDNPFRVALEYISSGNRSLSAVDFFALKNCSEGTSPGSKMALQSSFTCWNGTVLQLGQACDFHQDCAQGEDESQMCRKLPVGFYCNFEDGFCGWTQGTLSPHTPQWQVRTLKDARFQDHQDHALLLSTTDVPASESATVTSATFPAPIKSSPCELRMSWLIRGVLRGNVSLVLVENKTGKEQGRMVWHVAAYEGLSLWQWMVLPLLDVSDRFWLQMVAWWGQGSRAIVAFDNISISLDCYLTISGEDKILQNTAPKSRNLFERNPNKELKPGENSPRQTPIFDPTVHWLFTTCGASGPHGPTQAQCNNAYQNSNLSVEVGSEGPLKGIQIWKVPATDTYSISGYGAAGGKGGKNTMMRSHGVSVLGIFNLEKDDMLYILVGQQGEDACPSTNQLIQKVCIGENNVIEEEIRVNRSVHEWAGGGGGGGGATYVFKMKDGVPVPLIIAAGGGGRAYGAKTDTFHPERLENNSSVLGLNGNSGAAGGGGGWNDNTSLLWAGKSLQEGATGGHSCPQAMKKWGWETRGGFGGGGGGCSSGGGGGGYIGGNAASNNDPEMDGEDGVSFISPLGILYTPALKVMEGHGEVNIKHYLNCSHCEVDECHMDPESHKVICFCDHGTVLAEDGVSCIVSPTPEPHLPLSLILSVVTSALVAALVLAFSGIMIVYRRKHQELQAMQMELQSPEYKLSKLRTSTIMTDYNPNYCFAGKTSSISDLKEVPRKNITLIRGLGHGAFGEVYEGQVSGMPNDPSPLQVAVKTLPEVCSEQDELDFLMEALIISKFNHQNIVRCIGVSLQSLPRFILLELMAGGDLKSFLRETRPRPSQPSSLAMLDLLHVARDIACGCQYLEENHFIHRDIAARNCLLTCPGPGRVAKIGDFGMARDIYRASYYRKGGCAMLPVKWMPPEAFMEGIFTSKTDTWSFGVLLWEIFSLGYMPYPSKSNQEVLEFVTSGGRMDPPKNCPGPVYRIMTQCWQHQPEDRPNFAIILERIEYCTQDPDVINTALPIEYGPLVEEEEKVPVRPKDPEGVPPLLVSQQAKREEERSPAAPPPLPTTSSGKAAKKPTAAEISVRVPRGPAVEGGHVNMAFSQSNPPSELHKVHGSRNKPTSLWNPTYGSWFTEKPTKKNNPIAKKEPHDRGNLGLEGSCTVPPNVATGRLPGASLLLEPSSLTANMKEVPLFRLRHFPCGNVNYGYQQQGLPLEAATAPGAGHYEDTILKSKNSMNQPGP", "details": "U-87 MG, dose 0.5-2 µM, time 24.0 hrs"}, "[11]": {"assay": "Tmax in C57BL6/J mouse at 5 mg/kg, iv measured upto 24 hrs by LC-MS/MS analysis", "format": "ADME, organism-based", "details": "in vivo"}, "GL261 [12]": {"test_system": "GL261", "assay": "In vivo induction of apoptosis in mouse GL261 cells transfected with mRFP-GFPLC3 adenovirus allografted in C57BL/6J mouse model assessed as increase in cleaved PARP level in tumor tissue at 2.5 to 5 mg/kg, ip by immunofluorescence assay", "format": "functional, organism-based", "details": "dose 2.5-5 mg/kg"}, "Mus musculus": {"test_system": "Mus musculus", "assay": "Anti glioblastoma activity against mouse GL261-mNeonGreenLuc cells stereotaxically injected in corpus striatum of orthotopic glioblastoma mouse model assessed as increase in survival rate at 5 mg/kg, ip once daily measured on day 21", "format": "functional, organism-based"}, "[13]": {"molecular_target": "T1, ALK tyrosine kinase receptor", "details": "U-87 MG, dose 0.5-2 µM, time 24.0 hrs", "remark": "listed apart in the source"}, "[14]": {"assay": "MRT (0 to infinity) in C57BL6/J mouse at 5 mg/kg, iv measured upto 24 hrs by LC-MS/MS analysis", "format": "ADME, organism-based", "details": "in vivo"}},
  "note": "The source made the active and inactive calls. The calls are words filed in the database; no cut-off is given here.",
  "data": [
    {"smiles": "Cc1ccc(S(=O)(=O)n2cc(Cc3cc(C)c(O)c(C)c3)c3ccccc32)cc1", "values": [
      {"measurement": "inhibition", "setting": "[1]", "value": "Active"},
      {"measurement": "half-life", "setting": "[2]", "value": 213, "unit": "min"},
      {"measurement": "Activity", "setting": "[3]", "value": "Active"},
      {"measurement": "MRT last at 24 h", "setting": "[4]", "value": 135, "unit": "min"},
      {"measurement": "Activity", "setting": "GL261 [5]", "value": "inactive"},
      {"measurement": "Activity", "setting": "GL261 [6]", "value": "Active"},
      {"measurement": "AUC(0-inf)", "setting": "[7]", "value": 925, "unit": "ng·h/mL"},
      {"measurement": "Activity", "setting": "GL261 [8]", "value": "Active"},
      {"measurement": "Tmax", "setting": "[9]", "value": 34.8, "unit": "min"},
      {"measurement": "inhibition", "setting": "[10]", "value": "Active"},
      {"measurement": "Tmax", "setting": "[11]", "value": 4.8, "unit": "min"},
      {"measurement": "Activity", "setting": "GL261 [12]", "value": "Active"},
      {"measurement": "Activity", "setting": "Mus musculus", "value": "Active"},
      {"measurement": "inhibition", "setting": "[13]", "value": "Active"},
      {"measurement": "MRT inf", "setting": "[14]", "value": 50.4, "unit": "min"}
    ]}
  ]
}
